In data set [1] the target is T1, UGT1A6 in human liver microsomes (Homo sapiens, UniProt P19224).
T1 sequence (P19224 27-532): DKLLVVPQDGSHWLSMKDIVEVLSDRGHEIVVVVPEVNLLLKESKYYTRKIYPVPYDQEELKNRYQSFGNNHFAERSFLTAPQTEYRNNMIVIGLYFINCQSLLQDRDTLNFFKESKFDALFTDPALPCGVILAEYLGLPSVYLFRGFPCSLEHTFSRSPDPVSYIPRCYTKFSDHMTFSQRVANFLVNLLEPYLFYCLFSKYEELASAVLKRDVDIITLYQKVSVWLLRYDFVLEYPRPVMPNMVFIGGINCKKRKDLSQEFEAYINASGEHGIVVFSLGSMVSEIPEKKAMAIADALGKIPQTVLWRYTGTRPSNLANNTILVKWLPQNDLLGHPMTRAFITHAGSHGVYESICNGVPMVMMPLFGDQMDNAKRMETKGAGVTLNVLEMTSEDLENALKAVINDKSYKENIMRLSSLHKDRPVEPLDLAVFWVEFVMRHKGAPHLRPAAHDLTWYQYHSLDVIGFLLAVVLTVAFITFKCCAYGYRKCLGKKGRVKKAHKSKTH
The experiment in a line: Inhibition of serotonin glucuronidation. Conditions: HLM.

For data set [2], the target named is T2, UGT1A9 (Homo sapiens, UniProt O60656).
T2 sequence (O60656 26-530): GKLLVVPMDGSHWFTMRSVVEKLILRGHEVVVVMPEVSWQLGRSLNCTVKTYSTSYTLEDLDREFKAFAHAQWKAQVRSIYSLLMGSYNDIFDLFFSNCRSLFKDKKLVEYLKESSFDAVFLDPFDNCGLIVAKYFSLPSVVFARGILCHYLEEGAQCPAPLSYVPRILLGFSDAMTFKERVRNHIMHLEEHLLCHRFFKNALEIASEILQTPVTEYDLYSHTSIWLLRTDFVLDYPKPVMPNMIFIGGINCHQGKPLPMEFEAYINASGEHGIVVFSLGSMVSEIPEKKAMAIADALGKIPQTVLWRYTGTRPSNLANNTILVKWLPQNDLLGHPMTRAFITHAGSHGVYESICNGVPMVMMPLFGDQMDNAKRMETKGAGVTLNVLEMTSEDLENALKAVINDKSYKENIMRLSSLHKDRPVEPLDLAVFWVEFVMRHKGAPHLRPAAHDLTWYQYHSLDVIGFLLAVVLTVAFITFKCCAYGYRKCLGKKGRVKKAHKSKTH
The experiment in a line: in vitro. The following applies: both, HLM.

For data set [3] the following is noted: 400 mg oral dose; ref Manini et al., 2015; cited from earlier work.
In data set [4] the target is T3, UGT2B4 (Homo sapiens, UniProt P06133).
T3 sequence (P06133 24-528): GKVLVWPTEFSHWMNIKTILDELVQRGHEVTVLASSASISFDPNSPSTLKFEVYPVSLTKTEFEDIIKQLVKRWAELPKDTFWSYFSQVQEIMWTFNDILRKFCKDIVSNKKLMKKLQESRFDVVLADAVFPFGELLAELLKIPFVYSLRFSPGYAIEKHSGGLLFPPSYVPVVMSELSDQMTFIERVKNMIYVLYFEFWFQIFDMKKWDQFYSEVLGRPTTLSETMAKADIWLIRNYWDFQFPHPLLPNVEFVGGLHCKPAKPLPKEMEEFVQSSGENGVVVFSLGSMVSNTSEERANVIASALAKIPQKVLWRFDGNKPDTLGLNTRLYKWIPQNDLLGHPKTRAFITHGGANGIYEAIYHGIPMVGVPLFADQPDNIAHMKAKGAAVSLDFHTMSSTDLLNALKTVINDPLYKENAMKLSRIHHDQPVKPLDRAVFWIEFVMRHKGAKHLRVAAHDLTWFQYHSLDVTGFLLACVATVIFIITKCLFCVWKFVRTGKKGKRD
Nature of the data set: Inhibition of codeine glucuronidation in rUGT2B4 microsomes. Type of data set: in vitro ADME.

Data set [5] addresses T4, UGT1A6 in human kidney microsomes (Homo sapiens, UniProt P19224).
T4 sequence (P19224 27-532): T1 sequence (P19224 27-532)
Nature of the data set: Inhibition of serotonin glucuronidation. Conditions: HKM.

Data set [6] is described as follows: Nonspecific binding. Type of data set: in vitro ADME. The following applies: human.
Data set [7] can be described thus: Nonspecific binding. The data set is classed as in vitro ADME. The following applies: human, incubation mixture with human liver microsomes.
The target in data set [8] is T5, UGT2B10 (Homo sapiens, UniProt P36537).
T5 sequence (P36537 24-528): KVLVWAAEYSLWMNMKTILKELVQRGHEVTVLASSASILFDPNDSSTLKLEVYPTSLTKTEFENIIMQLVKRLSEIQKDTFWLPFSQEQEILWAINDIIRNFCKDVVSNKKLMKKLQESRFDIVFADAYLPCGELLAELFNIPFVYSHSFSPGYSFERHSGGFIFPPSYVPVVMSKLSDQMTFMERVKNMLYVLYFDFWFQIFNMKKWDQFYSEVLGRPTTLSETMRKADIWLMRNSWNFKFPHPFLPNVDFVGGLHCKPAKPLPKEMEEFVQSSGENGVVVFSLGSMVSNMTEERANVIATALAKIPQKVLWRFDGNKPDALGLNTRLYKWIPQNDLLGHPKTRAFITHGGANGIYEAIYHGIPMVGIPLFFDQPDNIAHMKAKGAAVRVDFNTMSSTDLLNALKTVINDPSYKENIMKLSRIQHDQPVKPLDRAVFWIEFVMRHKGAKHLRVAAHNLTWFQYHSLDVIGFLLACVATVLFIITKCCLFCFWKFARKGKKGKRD
The experiment in a line: Screening: inhibition of nicotine glucuronidation in rUGT2B10 microsomes. Type of data set: in vitro ADME. The following applies: 100 µM.

A short description of data set [9]: Nonspecific binding. The data set is classed as in vitro ADME. The following applies: human, incubation mixture with human kidney microsomes.
Where [10] appears, read: IC50, probe substrate serotonin.
The mark [11] stands for this setting: IC50,u (binding-corrected IC50), probe substrate serotonin.
The mark [12] stands for this setting: IC50, probe substrate furosemide.
The mark [13] stands for this setting: IC50,u (binding-corrected IC50), probe substrate furosemide.

SMILES strings stand for the structures.

In general, IC50 refers to the point on the concentration scale where inhibition reaches its midpoint. For orientation: fraction unbound means the share of the substance not bound to proteins or other matrix.

Consider `C=C(C)[C@@H]1CCC(C)=C[C@H]1c1c(O)cc(CCCCC)cc1O` [CBD, cannabidiol], for which the IC50 in [1] (setting [10]) was 28 ± 6.5 µM; in data set [1] (setting [11]), 1.4 ± 0.33 µM; in data set [2] (setting [12]) it was 29 ± 4 µM; in data set [2] (setting [13]), 1.5 ± 0.2 µM; in data set [4] (IC50, probe substrate codeine) it was 5.8 ± 1.2 µM; in data set [4] (IC50,u (binding-corrected IC50), probe substrate codeine), 0.22 ± 0.045 µM. The values for the IC50 in data set [5] (setting [10]) and in [5] (setting [11]) were 17 ± 3.7 µM and 1 ± 0.23 µM, respectively. Also, the average plasma level in data set [3] was 181 µg/L. For the same molecule, in data set [4] (10 µM, codeine, screening), the “inhibition vs control without cannabinoid” value is on record as 66%.
For the molecule `CCCCCc1cc(O)c2c(c1)OC(C)(C)c1ccc(C)cc1-2` [CBN, cannabinol], the figures for the free fraction (fraction unbound) in [6], in data set [7] and in [9] were 0.085 ± 0.005, 0.092 ± 0.006 and 0.12 ± 0.015, respectively. Also, the IC50 in data set [2] (setting [12]) is 30 ± 4.5 µM; in [2] (setting [13]), 2.8 ± 0.96 µM. The “inhibition vs control without cannabinoid” value in data set [8] is on record as 47%. Further, in data set [4] (10 or 100 µM), the “inhibition in screening (in words)” value is listed as “significant inhibition was not observed”.

Values taken from publication PMC11022890 (Drug Metabolism and Disposition, 2021).
